Results from US20240189289A1, “INHIBITORS OF EPHB3 SIGNALING” (The Brigham and Women`s Hospital, Inc., priority 2021, published 2024).

Legend:
[1] = biological target: T1, EphB3 (Homo sapiens, UniProt P54753); assay: EphB3 radiometric kinase activity assay (33P ATP filter binding); type: biochemical; conditions: FIG. 1C
T1 sequence (P54753 34-998): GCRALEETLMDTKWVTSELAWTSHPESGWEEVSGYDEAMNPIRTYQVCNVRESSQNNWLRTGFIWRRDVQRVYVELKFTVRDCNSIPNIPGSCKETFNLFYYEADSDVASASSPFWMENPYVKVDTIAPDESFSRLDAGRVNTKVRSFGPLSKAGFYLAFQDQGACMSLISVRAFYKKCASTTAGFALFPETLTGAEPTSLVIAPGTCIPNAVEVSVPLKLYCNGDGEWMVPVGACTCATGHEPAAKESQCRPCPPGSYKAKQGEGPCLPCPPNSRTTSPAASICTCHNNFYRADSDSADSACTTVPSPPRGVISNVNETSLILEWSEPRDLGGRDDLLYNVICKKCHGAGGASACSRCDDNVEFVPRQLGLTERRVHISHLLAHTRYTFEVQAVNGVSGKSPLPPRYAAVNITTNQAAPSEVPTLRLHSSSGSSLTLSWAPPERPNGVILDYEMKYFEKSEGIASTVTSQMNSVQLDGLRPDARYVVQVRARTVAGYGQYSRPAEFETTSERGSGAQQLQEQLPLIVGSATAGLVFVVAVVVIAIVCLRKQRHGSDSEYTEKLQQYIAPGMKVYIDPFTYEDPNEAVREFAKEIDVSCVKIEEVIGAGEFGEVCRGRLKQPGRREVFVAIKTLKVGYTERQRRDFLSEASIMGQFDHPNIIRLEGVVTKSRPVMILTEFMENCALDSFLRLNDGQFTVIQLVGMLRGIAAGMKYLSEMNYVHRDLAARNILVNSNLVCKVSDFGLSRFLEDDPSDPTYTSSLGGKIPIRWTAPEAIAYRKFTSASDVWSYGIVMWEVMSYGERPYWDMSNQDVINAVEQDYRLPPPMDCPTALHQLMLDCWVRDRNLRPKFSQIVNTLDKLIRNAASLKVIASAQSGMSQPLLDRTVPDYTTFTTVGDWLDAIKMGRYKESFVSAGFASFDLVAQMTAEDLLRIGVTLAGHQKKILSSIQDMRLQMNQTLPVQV
Method: EphB3 radiometric kinase activity assay. To study the EphB3 kinase activity, a radioactive filter binding assay using 33P ATP was performed as described at the […] International Centre for Kinase profiling. […] The mix was harvested onto P81 filter plates and counts were read on a Topcount NXT.

[2] = test system: astrocytes; assay: Mitochondrial ROS measurement (MitoSOX) in astrocytes; type: cell-based, mouse; conditions: induced by stimulation with TNFα and IL-1β
Method: Mitochondrial ROS measurement. 50,000 astrocytes were seeded per well in 96-well black plates and rested for 2 days in complete medium, followed by activation or inhibitor pretreatment for 24 h. MitoSOX red (Thermo Fisher Scientific, #M36008) was used to stain for mitochondrial ROS for 10 min following the manual and the signal was detected on Infinite M1000 PRO Microplate Reader (Tecan). The fluorescent signal was normalized to cell number estimated using CyQUANT cell proliferation assay kit (Invitrogen, #C7026) first and then compared to control group for data analysis.

[3] = test system: microglia; assay: Neonatal murine microglia stimulated with LPS: qPCR; type: cell-based, mouse; conditions: induced by LPS stimulation
Method: RNA isolation, cDNA synthesis and qPCR. RNA was extracted from in vitro generated samples with RNeasy Mini kit (#74106, QIAGEN) and cDNA was prepared by using the High-Capacity cDNA Reverse Transcription Kit (#4368813, Life Technologies), both according to the manufacturer's protocol. Gene expression was measured by qPCR with Taqman Fast Universal PCR Master Mix (#4367846, Life Technologies). Data were analyzed by the ddCt method by normalizing the expression of each gene to GAPDH and HPRT for mouse and GAPDH for human and then to the control group. All probes are listed below. • Mouse: EphB3 Mm00802553_m1, Ccl2 Mm00441242_m1, Csf2 Mm01290062_m1, Nos2 Mm00440502_m1, Tnf Mm00443258 m1, Il1b Mm00434228_m1, 116 Mm00446190_m1, GAPDH Mm99999915_g1. • Human: CCL2 Hs00234140_m1, CSF2 Hs00929873 ml, NOS2 Hs01075529_m1, TNF • Hs00174128_m1, IL6 Hs00985639_m1, IL1b Hs01555410_m1, GAPDH Hs02758991_g1.

[4] = test system: primary astrocytes; assay: Seahorse Mito Stress test (oxygen consumption) in primary astrocytes; type: cell-based, mouse
Method: Oxygen consumption. […] Mito Stress assay was then performed with Seahorse XF Cell Mito Stress Test Kit (Agilent Technologies, #103015-100) following the manufacturer's manual. […] The assay medium (DEMEM with 10 mM Glucose, 1 mM pyruvate and 2 mM glutamine) was used during the assay. The OCR rate was normalized to cell number estimated using CyQUANT cell proliferation assay kit (Invitrogen, #C7026).

O=C(Nc1ccccc1Cl)c1cnc2ccc(C3CCNCC3)cn12 [A38]
EphB3 tyrosine kinase activity in a cell-free assay [1]: inhibited EphB3 tyrosine kinase activity in a dose-dependent manner | mitochondrial production of ROS [2]: decreased | microglial expression of Nos2 [3]: no effect | microglial expression of Tnfa [3]: no effect | ATP-linked respiration [4]: decreased | basal mitochondrial respiration [4]: decreased | maximal mitochondrial respiration [4]: decreased
